Assay: gradient 5% acetonitrile 3 min, to 50% in 2 min, to 85% in 15 min, held 3 min, 100 µL/min
Details: column: Zorbax Extend-C18 2.1 x 50 mm; eluents: water / acetonitrile, 0.1% formic acid
Procedure, shortened: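 Standards, all pure, were combined into mixtures of ~100 molecules and run at 100 μL/min on a Zorbax Extend-C18 column (2.1 × 50 mm, 1.8 μm) with water and acetonitrile, each containing 0.1% formic acid. A coupled quadrupole time-of-flight mass spectrometer operated in positive and negative ionization mode. Retention time values come from computationally picked adduct peaks, each inspected manually.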

| RP-LC retention time | Structure (SMILES) |
| --- | --- |
| 1220 s | O=S(=O)(c1ccc(Br)cc1)N1CCCC(COCc2ccccc2)C1 (stereo not drawn) |
| 1230 s | CC1(C(=O)NCc2ccccc2)CCN(S(=O)(=O)c2ccc(C3CCCCC3)cc2)CC1 |
| 884 s | CCOc1ccccc1NC(=O)COc1nc(CC)nc2ccccc12 |
| 741 s | Cn1c(=O)c2nc(S(=O)(=O)CCC(=O)Nc3ccc(Cl)cc3)n(C)c2n(C)c1=O |
| 913 s | Cc1ccc(NC(=O)N2CCC(n3cnc4ccc(Cl)cc4c3=O)CC2)cc1C |
| 1070 s | Cc1sc(-c2cc(C(F)(F)F)on2)cc1S(=O)(=O)Nc1ccc2c(c1)OCCO2 |
| 1010 s | O=C(NCCc1ccccc1)C1=Cc2ccccc2OC=C1 |
| 906 s | CCS(=O)(=O)N1CC(=O)N(c2cccc(Cl)c2C)C(C)(C(=O)NCc2ccccc2)C1 (stereo not drawn) |
| 797 s | Cc1ccc(Nc2nc(C)cc(N3CCN(S(=O)(=O)c4cc(F)ccc4F)CC3)n2)cc1 |
| 929 s | CCn1nccc1-c1cccc(-c2noc(C(C)NC(=O)c3ccccc3)n2)c1 (stereo not drawn) |
| 842 s | CCN(CC)C(=O)Cn1nc2cc(-c3ccc(OC)cc3)nc(C)n2c1=O |
| 868 s | CC(=O)N(Cc1nn(C)c2c1CN(S(=O)(=O)c1ccc3c(c1)CCC3)CC2)c1ccccc1 |
| 706 s | CCn1cc(CC(=O)NCCC(C)C)c2cccnc21 |
| 666 s | CC(=O)Nc1c(C)noc1/C=C\c1ccc(C)c(S(=O)(=O)N2CCN(c3ccccn3)CC2)c1 |
| 900 s | Cc1nc2nc(-c3ccc(C(C)(C)C)cc3)nn2c(C)c1CC(=O)N1CCCC1 |
| 899 s | O=C(CCc1conc1-c1cccc(F)c1)NCc1ccc(F)cc1 |
| 825 s | CC1(C)CC(=O)C2=C(C1)Nc1ccccc1N(C(=O)c1ccccc1)C2c1ccco1 (stereo not drawn) |
| 573 s | Cc1ccc(C(=O)N2CCC(n3cnnc3-c3ccccc3)C2)cn1 (stereo not drawn) |
| 856 s | Cc1ccc(Cl)cc1NC(=O)Cn1nc(N2CCOCC2)c2ccccc2c1=O |
| 916 s | CCN1c2cc(Cl)ccc2C(=O)NC12CCN(C(=O)Nc1cc(C)ccc1OC)CC2 |
| 775 s | COc1ccc(NS(=O)(=O)c2cc3n(c2)CCN(C(C)C)C3=O)cc1Cl |
| 656 s | O=C(c1ccn[nH]1)N1C[C@@H]2C(=O)N(CCc3ccccc3)C(=O)[C@@H]2C1 |

| RP-LC retention time | Structure (SMILES) |
| --- | --- |
| 685 s | CC(=O)Nc1ccc(CC(=O)NC(C)C(=O)N2CCCc3ccccc32)cc1 (stereo not drawn) |
| 742 s | Cc1cc2c(=O)n(CC(=O)Nc3cccc(Cl)c3)c3cccnc3n2n1 |
| 1020 s | CCc1nn2c(CNS(=O)(=O)c3ccc(C)cc3C)c(-c3ccccc3)nc2s1 |
| 1060 s | Cc1cccc(-c2noc(Cn3nc(-c4ccccc4)ccc3=O)n2)c1 |
| 913 s | CC(C)NC(=O)C1CCN(S(=O)(=O)c2cc(-c3noc(C4CCC4)n3)cs2)CC1 |
| 633 s | CC1=C(c2ccc(Cl)cc2)S(=O)(=O)N=C1N1CCCN(C(=O)Cn2ccnc2)CC1 |
| 922 s | COc1ccc(OC)c(NC(=O)N2CCC3(CC2)N=C(c2ccc(Cl)cc2)C(=O)N3)c1 |
| 640 s | CC1CCCCC12NCCN=C2NCc1cccc(F)c1 (stereo not drawn) |
| 1030 s | CCCCN1C(=O)C(C)(C(=O)Nc2ccc(F)cc2)Oc2cccnc21 (stereo not drawn) |
| 713 s | CC(C)CC(=O)Nc1ccc(N2CCOCC2)cc1C(=O)O |
| 719 s | O=C(Nc1cccc(-c2nnc3n2CCCC3)c1)C1(c2ccccc2)CC1 |
| 1010 s | Cc1ccccc1CNC(=O)c1c(C)sc2ccn(CC(C)C)c(=O)c12 |
| 871 s | O=C(NCc1cccc(C(F)(F)F)c1)C1CCN(c2ccc(SCc3ccccc3)nn2)CC1 |
| 729 s | COc1ccc(NC(=O)C2CCN(S(=O)(=O)c3cc(C(=O)N4CCCC4)n(C)c3)CC2)cc1 |
| 680 s | CCCN1C(=O)C(CC(=O)NC(C)C)Sc2ncccc21 (stereo not drawn) |
| 747 s | CCOC(=O)Nc1nc2c(s1)CN(S(=O)(=O)c1c(C)noc1C)CC2 |
| 809 s | CCOC(=O)c1nc(N2CCN(c3ccccc3OC)CC2)c2ccccc2n1 |
| 806 s | CCCCNC(=O)C1Cc2cc(S(=O)(=O)N3CCCCC3)ccc2N1C(C)=O (stereo not drawn) |
| 745 s | COc1ccc(CCC(=O)NC(CC(C)C)C(=O)Nc2nc3ccccc3[nH]2)cc1 (stereo not drawn) |
| 557 s | O=C(NCCN1CCOCC1)c1ccc(-c2ccc(N3CCCCC3)nc2)cc1 |
| 630 s | CCCc1nc2cccnc2n1C1CCN(C(=O)COc2ccccc2)C1 (stereo not drawn) |
| 632 s | COc1cccc(CNC(=O)c2cn3ccc(C)cc3n2)c1OC |

| RP-LC retention time | Structure (SMILES) |
| --- | --- |
| 923 s | Cc1cccc(-n2c(=O)c3c(cc(C)n3C)n(CC(=O)Nc3ccc(Cl)cc3)c2=O)c1 |
| 700 s | COc1ccccc1NC(=O)Nc1c(-c2ccc(C)cc2)nc2ccccn12 |
| 957 s | O=C(COc1ccc(F)cc1)Nc1cnc(N2CCCCCC2)nc1 |
| 574 s | CC(NC(=O)C(C)(C)C)C(=O)N1CCN(c2ccccn2)CC1 (stereo not drawn) |
| 953 s | O=C(NCc1ccccc1)c1nnc(-c2ccc(S(=O)(=O)N3CCCCC3)cc2)o1 |
| 936 s | CCOc1ccccc1NC(=O)NC(C)C(=O)N1CCc2ccccc21 (stereo not drawn) |
| 1070 s | O=C(Nc1ccc2c(c1)CCN2S(=O)(=O)c1ccccc1)Nc1cc(F)ccc1F |
| 808 s | O=C(Cc1nnc(-c2cccc(F)c2)o1)Nc1ccccc1 |
| 692 s | CSc1ncc2[nH]c(C(O)c3ccccc3)nc2n1 (stereo not drawn) |
| 874 s | O=C(Nc1ccccc1F)C1COc2ccccc2C1 (stereo not drawn) |
| 950 s | Cc1csc(-n2nc(C)c(CC(=O)Nc3ccc(F)cc3)c2C)n1 |
| 674 s | CC(C)CN1C(=O)c2ccccc2C(C(=O)N2CCN(c3ccccn3)CC2)C1c1cccs1 (stereo not drawn) |
| 912 s | CCN1C(=O)c2cccnc2Sc2cc(NC(=O)c3cccc(Cl)c3)ccc21 |
| 719 s | COCCC1CCN(C(=O)c2nccc3ccccc23)CC1 |
| 691 s | Cc1cccc(-c2nnc(-c3nc(NCc4cccnc4)c4ccccc4n3)o2)c1 |
| 847 s | Clc1ccc(-c2nc(N3CCCCCC3)c3ccccc3n2)cc1 |
| 753 s | CCOc1ccc(Cl)cc1S(=O)(=O)N1CCC(C(=O)NCCOC)CC1 |
| 567 s | CN(C)c1ncncc1N1CCC(C(=O)N2CCCC2)CC1 |
| 726 s | O=C(Nc1ccc(-n2cnc(C(=O)N3CCN(c4ccccc4)CC3)c2)nc1)C1CC1 |
| 718 s | Cc1cccc(CNC(=O)CCc2c(-c3ccc(Br)cc3)nc3ccccn23)c1 |
| 657 s | O=C(Nc1ccccc1Br)N1CCN(CCn2c(C(F)(F)F)nc3cccnc32)CC1 |
| 846 s | CN1C(=O)c2ccccc2Oc2ccc(C(=O)N3CCCCCC3)cc21 |

| RP-LC retention time | Structure (SMILES) |
| --- | --- |
| 530 s | CNC(=O)[C@@H]1CN(S(=O)(=O)c2cnc[nH]2)C[C@H]1c1n[nH]c(C)n1 |
| 702 s | N#Cc1ccc(Cl)cc1NC(=O)C1CCN(c2ccc(-c3cccs3)nn2)CC1 |
| 807 s | c1cnc(N2CCN(c3nn4nnnc4c4ccccc34)CC2)nc1 |
| 763 s | COCCc1noc(-c2cnc3nc(C)ccc3c2Nc2cccc(Cl)c2)n1 |
| 784 s | COc1ccc2[nH]c(C(=O)N3CCN(C(=O)c4ccc(Br)o4)CC3)cc2c1 |
| 657 s | Cc1cc(-c2cc(S(=O)(=O)N3CCN(C4CCCCC4)CC3)c(C)s2)n[nH]1 |
| 664 s | Cc1cc(F)cc2c(=O)c3c([nH]c12)CCN(CC(=O)Nc1ccc(F)c(Cl)c1)C3 |
| 654 s | O=c1ccc(N2CCCC(NS(=O)(=O)Cc3ccccc3)C2)n[nH]1 (stereo not drawn) |
| 622 s | CCN1CCN(Cc2ccc(NC3=NS(=O)(=O)C(c4ccc(OC)cc4)=C3C)cc2)CC1 |
| 713 s | Cc1ccc(NC(=O)NCC2CCOCC2)c(C)c1 |
| 577 s | CC(=O)N1c2ccc(S(=O)(=O)N3CCCC3)cc2CC1C(=O)NCCN(C)C1CCCCC1 (stereo not drawn) |
| 862 s | CCC(C)NC(=O)C1CCN(S(C)(=O)=O)c2cc(Cl)ccc2O1 (stereo not drawn) |
| 855 s | O=C(NC1CCCCCCC1)C1CCN(C(=O)c2ccccc2F)CC1 |
| 1230 s | CC1CCC(NC(=O)c2cc3sc(Cl)cc3n2C)CC1 (stereo not drawn) |
| 824 s | O=C(Cn1nc(C(=O)N2CCCC2)c2ccccc21)NCc1ccccc1Cl |
| 792 s | Cc1cc2c(cc1S(=O)(=O)N1CCCC1C(=O)NCCc1ccccc1)OC(C)C(=O)N2 (stereo not drawn) |
| 835 s | O=C(NC1CC1)c1nc(-c2cccs2)cs1 |
| 844 s | CN(C)S(=O)(=O)c1ccc(-c2nnc(C(=O)NCc3ccc(F)cc3)o2)cc1 |
| 710 s | Oc1cccc(-c2nc3ncccn3c2Nc2ccc(Cl)cc2)c1 |

| Structure (SMILES) | RP-LC retention time |
| --- | --- |
| CCc1nc2cc(N3CCC(C(=O)N4CCC5(CC4)OCCO5)CC3)cnc2nc1CC | 723 s |
| O=C(c1ccco1)N1[C@H]2CC[C@@H]1c1cnc(-c3ccc(F)cc3)nc1C2 | 858 s |
| C/C=C(\C)C(=O)O[C@H]1CC[C@@]2(C)[C@@H]3CC[C@H]4[C@]5(O)C[C@H](O)[C@@]6(O)[C@@H](CN7C[C@@H](C)CC[C@H]7[C@@]6(C)O)[C@]5(O)C[C@@]42O[C@]13O | 692 s |

Source: the METLIN SMRT retention time set (Domingo-Almenara et al. 2019)
